Assay results as given in patent US20170246137A1, “SULFESTROL FOR TREATING CANCER” (CHAMAELEO PHARMA BVBA, priority 2012, published 2017).

What was measured:
DU-145 = test: In vitro direct cytotoxicity, Cell titer Blue viability, 72 hrs; format: cell-based
Method: (§1) Cells were harvested, washed, re-suspended into growth medium and counted.
(§2) Stocks of all compounds were then serially diluted. […] Positive control was Taxotere. Taxotere was diluted in 100% DSMO to give a stock concentration of 1 mM. Stock was serially diluted. Final concentrations to which cells were exposed were 1000, 333.3, 111.1, 37.0, 12.3, 4.1, 1.4, 0.5, and 0.2 nM.

LNCaP = test: as above; format: cell-based
Method: as §1, §2

MCF7 = test: as above; details: MCF7
Method: (§3) Cells were maintained in vitro in RPMI 1640 containing 10% (v/v) heat inactivated FBS and 2 mM L-glutamine (growth media) at 37° C. in 5% CO2 and humidified conditions. Cells were harvested, washed, resuspended into growth medium and counted. The cells were re-suspended into assay media (RPMI 1640+1% (v/v) heat inactivated FBS+ and 2 mM L-glutamine) at 0.5-1×10^5 cells/ml (dependent upon cell type) and plated into 96-well assay plates (Corning, black-wall plates) in 50 ul/well aliquots.
(§4) Plates were incubated overnight at 37° C. in 5% humidified CO2 prior to addition of the compounds. […] Stocks of all compounds were then serially diluted. Final concentrations to which cells were exposed were 300, 150, 75, 37.5, 18.75, 9.4, 4.7, 2.3, 1.2, 0.6 μM. Positive control was Cisplatin. Cisplatin was diluted in 1% FBS media to give a stock concentration of 1 mM. Cisplatin stock was then serially diluted. Final concentrations to which cells were exposed were 100, 50, 25, 12.5, 6.3, 3.1, 1.6, 0.8, 0.4, 0.2 μM.
(§5) Plates were incubated for 72 hrs at 37° C. in 5% humidified CO2 after addition of the compounds. Viability of the cells was assessed with the Cell titer Blue™ (Promega) assay. 10 μl of Cell titer Blue™ reagents was added to each test/blank well. Plates were incubated 3 h at 37° C. in 5% humidified CO2 prior to analysis. Fluorescence was measured with a Flex II station plate reader. Excitation wavelength was 570 nm, emission wave length was 600 nm, cut off was 590 nm. Raw data was processed by GraphPad Prism to calculate mean, standard deviation and IC50 values.

MDA-MB-231 = test: as above; details: MDA-MB231
Method: as §3, §4, §5

[1] = tested on: platelet-rich plasma (PRP); test: Platelet-aggregation-inducing effects in platelet-rich plasma, absorbance 630 nm; format: cell-based; details: 7 minutes, human PRP
Method: Blood necessary to generate PRP was obtained from 4 healthy human volunteers. 100 ml of fresh venous blood from each donor was isolated directly into tubes containing 1/10th volume of the anti-coagulant Tri-Sodium Citrate (3.2% w/v). The blood and anti-coagulant were immediately mixed and the final concentration of Tri-Sodium Citrate was 0.0106 M.
PRP was prepared by centrifugation of anti-coagulated blood at 180 g for 10 minutes at room temperature. The cloudy yellow supernatant containing the platelets was removed and placed into a clean polypropylene tube. Platelet-poor plasma (PPP) was prepared by centrifuging the remaining sample at 1,200 g for 20 minutes at room temperature. The PRP was adjusted to a suitable platelet count and absorbance at 630 nm by addition of PPP.
All three compounds were dissolved in 100% DMSO to give a stock concentration of 60 mM. […] […] 100 nM gamma thrombin (Cambridge bioscience) was used as control for platelet aggregation. 90 μl aliquots of PRP were added to 96 wells plates. A baseline absorbance reading was taken at 630 nm. 5 μl of the compounds and gamma thrombin control was added to the appropriate PRP.
The plates were incubated at room temperature for 7 minutes on a plate shaker with continuous shaking. A second A630 nm reading was made after the 7 minutes incubation to measure any platelet aggregation induced by the compounds.

[2] = In vitro metabolism in human liver microsomes (STS and CYP); format: in vitro ADME; details: for Contribution to metabolism / half-life at 5 μM / Half-life: 5 μM; for half-life at 5 μM: human, liver microsomes
Method: In vitro metabolism pathways of DES, Mono-Sulfestrol and Di-Sulfestrol in human liver microsomes were investigated.
Special emphasis was put on desulfatation by steroid sulfatase (STS) and oxidation by cytochrome P (CYP) metabolism. Liver microsomes (Celsis in vitro Technologies) were used at a concentration of 0.5 mg/ml in a volume of 600 μl phosphate buffer pH 7.4. Estrone-3-sulfate was used as positive control.
5 μM of each compound (test and control compound) was added to the liver microsomes and the mixture was incubated at 37° C. for 5, 10, 20, 30, 50, 90 and 120 minutes. After incubation, aliquots of 45 μl were taken which were subsequently quenched with 150 μl ice cold methanol. Aliquots were incubated ≧1 h at −20° C. for protein precipitation. After precipitation, samples were centrifuged and remaining supernatant was used for analysis with LC-MS/MS. Half life of the compounds, speed of metabolism or intrinsic clearance (Clint), and contribution to metabolism of CYP and STS metabolism were calculated based on the data obtained at each time point.

[3] = Estrogenic activity: body weight and plasma cholesterol levels; format: in vivo, male Sprague-Dawley rats; details: for Mean bodyweight: in g (unit assumed)
Method: Estrogenic activity was determined by measuring body weight and plasma cholesterol levels.
Each animal was dosed three times a day with vehicle or test compound (1st dose 7:30-8:00, 2nd dose 12:30-13:00, 3rd dose 17:00-17:30) for 14 consecutive days.
After 14 days treatment, blood was collected from the animals via cardiac puncture 4 hrs past final dosing to analyze plasma cholesterol levels. The blood was immediately transferred to a tube containing 0.5M EDTA anticoagulant. It was mixed gently and centrifuged at 1000×g at 4° C. for 15 min. Plasma was aspirated from the centrifuged blood samples, quick frozen on dry ice and stored at −80° C. for later use.
Plasma cholesterol levels were determined using a commercial ELISA kit obtained from NovaTeinBio (BG-RAT11262). Standard protocol accompanied by the kit was used without any adjustments.

[4] = patients suffering from prostate cancer, 5 mg p.o. per day; cited from earlier work
[5] = tested on: MCF-7 breast cancer cells; details: cited from earlier work
[6] = tested on: DU-145 prostate cancer cells; details: cited from earlier work
prostate cancer cells = details: cited from earlier work
[7] = + NADPH + 667-Coumate (STS inactive, CYP active)
[8] = nothing added (STS active, CYP inactive)

CC/C(=C(/CC)c1ccc(O)cc1)c1ccc(O)cc1 [DES, diethylstilbestrol, reference compound]
cytotoxicity in vitro (in words) (DU-145; DU-145): cytotoxic
cytotoxicity in vitro (in words) (LNCaP): cytotoxic
cytotoxicity in vitro (in words) (MCF7): cytotoxic
cytotoxicity in vitro (in words) (MDA-MB-231): cytotoxic
Absorbance (630 nm) ([1]; 2.3 μM, high absorbance = low aggregation): 0.264 ± 0.030
Absorbance (630 nm) ([1]; 4.7 μM): 0.266 ± 0.031
Absorbance (630 nm) ([1]; 9.4 μM): 0.264 ± 0.030
Absorbance (630 nm) ([1]; 18.75 μM): 0.264 ± 0.030
Absorbance (630 nm) ([1]; 37.5 μM): 0.264 ± 0.030
Absorbance (630 nm) ([1]; 75 μM): 0.268 ± 0.032
Absorbance (630 nm) ([1]; 150 μM): 0.263 ± 0.033
metabolism pathway in human liver microsomes (in words) [2]: only processed by CYP metabolism
Contribution to metabolism [2, 7]: 131%
half-life at 5 μM ([2]; pH 7.4, + NADPH (STS and CYP active)): 18 min
half-life at 5 μM ([2]; pH 7.4, nothing added (STS active, CYP inactive)): 194 min
half-life at 5 μM ([2]; pH 7.4, with 667-Coumate (STS inhibitor; concentration not stated), + NADPH + 667-Coumate (STS inactive, CYP active)): 14 min
Contribution to metabolism [2, 8]: 9%
Mean bodyweight ([3]; Day 0, DES 1.5 mg/kg per day, Di-Sulfestrol 3 mg/kg per day, three doses a day): 382 ± 7.8
Mean bodyweight ([3]; Day 2): 379 ± 9.3
Mean bodyweight ([3]; Day 4): 361 ± 8.6
Mean bodyweight ([3]; Day 6): 350 ± 8.0
Mean bodyweight ([3]; Day 8): 342 ± 8.0
Mean bodyweight ([3]; Day 10): 341 ± 7.8
Mean bodyweight ([3]; Day 12): 337 ± 8.4
Mean bodyweight ([3]; Day 14): 339 ± 9.80
Cholesterol (plasma) ([3]; after 14 days treatment, 4 hrs past final dosing, DES 1.5 mg/kg per day, Di-Sulfestrol 3 mg/kg per day): 14.9 ± 0.724 nmol/L
estrogenic activity in rats (in words) ([3]; lowering body weight and cholesterol levels): show estrogenic activity
increase of non-cancer related deaths, mostly cardiovascular [4]: 36%
effect on cell growth in vitro (in words) [5]: reduced cell growth in vitro
cytotoxic effects (in words) [6]: cytotoxic effects
concentrations that do not influence prostate cancer cell growth (prostate cancer cells): up to 100 ng/ml
minimal concentration to induce cytotoxic effects (prostate cancer cells): 1 µg/mL

CC(=O)O[C@@]12CO[C@@H]1C[C@H](O)[C@@]1(C)C(=O)[C@H](O)C3=C(C)[C@@H](OC(=O)[C@H](O)[C@@H](NC(=O)OC(C)(C)C)c4ccccc4)C[C@@](O)([C@@H](OC(=O)c4ccccc4)[C@H]21)C3(C)C [Taxotere, reference compound]
IC50 (DU-145; Homo sapiens, DU-145, hormone-independent prostate cancer cell line, 72 hrs): 4 nM
IC50 (LNCaP; Homo sapiens, hormone-dependent prostate cancer cell line, 72 hrs): 2 nM

C[C@]12CC[C@@H]3c4ccc(OS(=O)(=O)O)cc4CC[C@H]3[C@@H]1CCC2=O [E-3-S, Estrone-3-sulfate]
Contribution to metabolism [2, 7]: 19%
Half-life [2, 7]: 62 min
Contribution to metabolism [2, 8]: 44%
Half-life [2, 8]: 27 min
